What was measured:
[1] = test system: E2F sites of the p68 subunit of DNA polymerase α promoter; test: pKL12 / pKL12-E2FAB promoter construct assay; assay type: cell-based; conditions: wild-type versus mutated E2F sites
[2] = test system: E2F1, p63/p73 and NF-Y target genes; test: Real-time RT-PCR of E2F1, p63/p73 and NF-Y target genes in MDA-MB468 cells; assay type: cell-based, human; conditions: 2.5 μM, 5 h
Method: RNA was isolated using TRIzol method (Invitrogen). Quantitative reverse transcription-PCR (RT-PCR) was performed in triplicate using the forward and reverse primers ((Chowdhury et al. 2014) Supplementary FIG. 18) on an MX3005P thermal cycler using SYBR green dye method to observe the progress of the reactions with ROX dye, which was added as reference. GAPDH was run in parallel with target genes.

[3] = test system: MDA-MB231 cells; test: Caspase 3/7 activity assay, MDA-MB231; assay type: cell-based, human; conditions: 2.5 μM overnight
Method: (§1) The apoptosis was measured by Caspase-Glo® 3/7 assay (Promega) following the manufacturer's protocol. The cells were plated in 6-well tissue culture dish (10^4 cells/well) (BD Falcon) in respective media. […] The blank reactions were prepared per direction. Equal volume of Caspase-Glo® 3/7 reagents were applied to each well. A luminometer (Sirius) was used to quantitate luminescence.

[4] = test system: MDA-MB231 cells; test: MTS assay, MDA-MB231; assay type: cell-based, human
Method: (§2) Then 50 μl of MTS reagent (CellTiter 96® AQueous One Solution Cell Proliferation Assay, Promega) was added to each well, covered from light and incubated for 1 h at 37.0 incubator to develop purple color. The samples were measured at 490 nm in a plate reader (BioTek Synergy HT) against a blank 48-well plate. Each assay was done in triplicate.

[5] = test system: RPMI 8226 myeloma cell line; test: MTS assay, RPMI 8226; assay type: cell-based, human; conditions: Calcein AM 2.5 μM, 12 h, mutp53(E285K)
Method: as §2

[6] = test system: MCF7 cells; test: MTS assay, MCF7; assay type: cell-based, human; conditions: increasing concentrations, 5 h, versus MCF10A
Method: as §2

[7] = target: T1, TopBP1/mutp53(R273H) interaction (Homo sapiens, UniProt Q92547); test: Co-immunoprecipitation in MDA-MB468 cells, TopBP1/mutp53; assay type: cell-based; conditions: 2.5 μM, 5 h
T1 construct: endogenous in cells; host or cells: MDA-MB468
Method: (§3) MDA-MB468 cells were lysed with TNN buffer (Liu et al. 2003). An aliquot of cell lysates was lysed with SDS lysis buffer and the rest of cell lysates were incubated with appropriate antibodies or beads at 4° C. for 3-12 h. Anti-FLAG beads (Sigma) were washed three times with TNN buffer. Immunoprecipitates were fractionated by SDS-PAGE and electro-transferred to Immobilon-P membrane (Millipore). Equal amount of protein loading was validated with Ponceau-S staining. The specific signals were detected by incubating with appropriate antibody. All primary antibodies were used at 1:1000 dilution and horseradish peroxidase (HRP)-conjugated secondary antibodies were used at 1:5000 dilution for immunoblotting. E2F1 (C-20 and KH-95), p53 (FL393), p63 (4A4 and H-129), p73 (H-79), p21 (C-19), Bax (N-20), GST (B-14), c-Myc (A14), Miz1 (H-190), Chk1 (G4), Actin (C-2) and GAPDH (6C5) antibodies were purchased from Santa Cruz. TopBP1 (mouse monoclonal) and Aid antibodies were purchased from BD Transduction Laboratories. TopBP1 (BL893, Rabbit polyclonal) antibody was purchased from Bethyl. Mouse monoclonal anti-phospho-γH2AX was purchased from Millipore. Phospho-Chk1 (Ser345) antibody was purchased from Cell signaling. FLAG (F7425) antibody was purchased from Sigma. Mouse monoclonal anti-p73 (IMG-246) was purchased from IMGENEX.

[8] = test system: BT549 cells; test: Trypan blue exclusion viability assay, BT549; assay type: cell-based, human
Method: To prepare TopBP1 knockdown stable cell line, MDA-MB468 cells were infected with lentivirus expressing TopBP1 shRNA (Liu et al. 2011) as well as scramble shRNA, separately. The infected cells were grown for 48 h followed by selection with puromycin (2 μg/ml). After selection, the knockdown was confirmed by Western blotting before further experiments. Two different pLKO-shTopBP1 (#1 and #2) constructs (Open Biosystems, RHS4533-NM_007027) were used to deplete TopBP1 in MDA-MB468 cells. Additional two pSuper-shTopBP1 constructs (Liu et al. 2004) were used to knock down TopBP1 in HEK293 cells. Two pSuper-shE2F1 constructs were used to deplete E2F1: shE2F1#1 (described previously (Liu et al. 2004)), and shE2F1#2 (target sequence 5′-[…]-3′). The target sequence for pSuperior-shE2F1 is the same as pSuper-shE2F1#1. To deplete p63, shp63alpha pLKO.1-puro (from Addgene, 19120) was used. TP73 MISSION shRNA (shp73 pLKO.1-puro) was purchased from Sigma (TRCN00002722587).

[9] = test system: T47D (PIK3CA mutant H1047R); conditions: NCI-60 cell lines database; cited from earlier work
[10] = test system: MDA-MB468; test: DNA damage signals (pS15-p53, γ-H2AX) in MDA-MB468; assay type: cell-based, human; conditions: up to 10 μM
Method: as §3

[11] = test system: p53 transcriptional activity; test: p53 activity reporter assay (p21 promoter dual luciferase) in H1299 cells; assay type: cell-based, human
Method: E2F1 activity reporter assay using a p14^ARF promoter-luciferase plasmid was performed as described (Liu et al. 2003). p53 activity reporter assay was performed by a p21^Cip promoter-luciferase plasmid (Liu et al. 2009). p73 activity reporter assay was performed using a pGL3-Bax promoter-luciferase plasmid (Liu et al. 2011). pRL-TK (Renilla luciferase, Promega) was used in all experiments for controlling transfection efficiency. The firefly and Renilla luciferase activities were measured by Dual-Luciferase Reporter System (Promega), and the firefly luciferase activities were normalized against the Renilla activity. All assays were performed in triplicate.

[12] = test system: SKOV-3 cells; test: Caspase-Glo 3/7 assay, SKOV-3 transfected with mutp53(R273H); assay type: cell-based, human; conditions: cisplatin 20 μM with Calcein AM 5 μM, 20 h
Method: as §1

[13] = test system: primary leukemia cells from a patient with T cell acute lymphoblastic leukemia; test: Caspase 3/7 activation assay, primary leukemia cells; assay type: cell-based; conditions: 2.5 μM, 7 hours
Method: as §1

[14] = test system: 4T1 mouse breast tumor cells; test: Apoptosis in mouse tumor cells; assay type: cell-based
Method: as §1

[15] = test system: rats; conditions: cited from earlier work

T1 sequence (Q92547 whole entry, stated change not applied): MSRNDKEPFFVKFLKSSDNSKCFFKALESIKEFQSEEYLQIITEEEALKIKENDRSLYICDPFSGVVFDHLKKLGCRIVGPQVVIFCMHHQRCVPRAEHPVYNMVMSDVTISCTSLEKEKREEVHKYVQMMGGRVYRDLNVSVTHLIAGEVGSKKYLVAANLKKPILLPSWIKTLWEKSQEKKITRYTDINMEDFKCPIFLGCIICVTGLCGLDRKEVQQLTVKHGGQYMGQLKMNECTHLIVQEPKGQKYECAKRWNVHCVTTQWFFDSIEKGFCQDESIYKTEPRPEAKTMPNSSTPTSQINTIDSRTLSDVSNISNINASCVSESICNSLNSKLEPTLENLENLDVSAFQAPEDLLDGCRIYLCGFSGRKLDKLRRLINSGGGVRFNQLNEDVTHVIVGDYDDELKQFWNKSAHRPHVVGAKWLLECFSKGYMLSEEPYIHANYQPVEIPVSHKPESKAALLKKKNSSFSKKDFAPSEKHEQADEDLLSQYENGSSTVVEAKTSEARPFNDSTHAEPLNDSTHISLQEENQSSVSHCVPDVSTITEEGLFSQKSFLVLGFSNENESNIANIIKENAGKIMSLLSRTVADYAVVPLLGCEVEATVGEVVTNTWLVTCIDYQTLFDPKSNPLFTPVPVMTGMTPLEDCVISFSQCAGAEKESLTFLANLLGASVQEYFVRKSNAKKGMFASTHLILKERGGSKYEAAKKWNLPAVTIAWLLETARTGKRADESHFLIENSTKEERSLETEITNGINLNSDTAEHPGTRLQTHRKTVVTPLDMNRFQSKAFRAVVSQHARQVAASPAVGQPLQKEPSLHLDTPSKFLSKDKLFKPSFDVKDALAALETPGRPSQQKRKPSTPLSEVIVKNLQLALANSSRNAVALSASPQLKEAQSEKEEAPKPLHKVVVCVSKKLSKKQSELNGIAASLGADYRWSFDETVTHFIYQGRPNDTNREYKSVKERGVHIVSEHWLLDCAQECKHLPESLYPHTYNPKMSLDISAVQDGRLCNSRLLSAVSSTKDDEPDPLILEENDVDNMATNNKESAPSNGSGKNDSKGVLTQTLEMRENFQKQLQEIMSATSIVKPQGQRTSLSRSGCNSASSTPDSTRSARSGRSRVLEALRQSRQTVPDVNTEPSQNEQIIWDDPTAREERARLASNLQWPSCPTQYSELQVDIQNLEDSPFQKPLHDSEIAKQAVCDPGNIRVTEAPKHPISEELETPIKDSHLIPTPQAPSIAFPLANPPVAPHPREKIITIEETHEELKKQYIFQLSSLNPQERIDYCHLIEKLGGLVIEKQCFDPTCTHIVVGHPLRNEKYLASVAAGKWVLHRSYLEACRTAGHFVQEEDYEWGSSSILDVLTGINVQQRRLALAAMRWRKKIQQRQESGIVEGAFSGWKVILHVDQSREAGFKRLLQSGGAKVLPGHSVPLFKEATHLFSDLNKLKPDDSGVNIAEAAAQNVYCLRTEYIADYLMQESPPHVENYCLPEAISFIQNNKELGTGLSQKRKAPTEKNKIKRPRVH

Compound: CC(=O)OCOC(=O)CN(CC(=O)OCOC(C)=O)Cc1cc2c(cc1OC(C)=O)Oc1cc(OC(C)=O)c(CN(CC(=O)OCOC(C)=O)CC(=O)OCOC(C)=O)cc1C21OC(=O)c2ccccc21 [Calcein AM, Calcein AM (acetoxymethyl ester)]
- induction of promoter activity on pKL12 and pKL12-E2FAB [1]: could only induce the activity on pKL12, but not on pKL12-E2FAB
- E2F1 pro-apoptotic target genes (p73, Apaf1, caspase 3) [2]: up-regulated
- NF-Y target genes (Cdk1, Cdc25C, Cyclin A2) [2]: down-regulation
- p63/p73 target genes (Bax, Noxa, Hdm2) [2]: up-regulation
- induction of E2F1, p63/p73 and NF-Y target gene expression ([2]; TopBP1-depleted cells): less significant
- apoptosis (caspase 3/7 activity) [3]: induced apoptosis
- anti-apoptotic activity of overexpressed TopBP1 (doxorubicin resistance) ([4]; AdTopBP1-infected cells, doxorubicin, Calcein AM 2.5 μM): blocked
- proliferation (MTS) ([4]; increasing concentrations, 5 h, versus MCF10A): preferentially inhibited the proliferation
- doxorubicin sensitivity (MTS) [5]: sensitized cells to doxorubicin
- proliferation (MTS) [6]: preferentially inhibited the proliferation
- TopBP1/mutp53 interaction at physiological levels [7]: inhibited
- Calcein AM response, viability assay ([8]; E2F1 depleted by two shRNA constructs, 2.5 μM, 20 h): attenuated
- living cells compared with scrambled shRNA ([8]; p63- and p73-depleted cells, 2 μM, 15 h): more living cells
- GI50 [9]: 1400 nM
- DNA damage (pS15-p53 or γ-H2AX signal) [10]: did not see evidence of DNA damage
- p53 transcriptional activity [11]: enhanced
- inhibition of cisplatin-induced apoptosis by overexpressed mutp53(R273H) [12]: partially rescued
- cell killing (caspase 3/7 activation) [13]: active in killing
- apoptosis [14]: induced apoptosis
- oral LD50 [15]: 14500 mg/kg

— US9636323B2, “Method of treating cancer that overexpresses TopBP1” (Baylor College of Medicine, priority 2014, dated 2017)
